In data set [1] the test system is lambsquarter (Chenopodium album). Put plainly: General postemergence herbicidal activity, CHEAL. The conditions noted are these: postemergence spray, visual score after 14 days, 0 = no injury, 100 = complete kill; for pest or weed control at 280 g/ha / pest or weed control at 70 g/ha / pest or weed control at 140 g/ha: Chenopodium album, post-emergence, 336 h, read-out: Post-emergent Weed Control CHEAL; for pest or weed control at 280 g/ha: 280 g ai/ha; for pest or weed control at 140 g/ha: 140 g ai/ha. The data set is classed as in vivo. The method, boiled down: (§1)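 Foliar application at 187 L/ha to first/second true leaf plants, serial rates 1X to 1/16X in acetone/DMSO/water spray mix with crop oil and surfactant; day/night 23-29/22-28 °C. 14-day visual rating, 0–100% injury.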

Data set [2] has as its system velvetleaf (Abutilon theophrasti). Put plainly: General postemergence herbicidal activity, ABUTH. The conditions noted are these: postemergence spray, visual score after 14 days, 0 = no injury, 100 = complete kill; for pest or weed control at 280 g/ha / pest or weed control at 70 g/ha / pest or weed control at 140 g/ha: Abutilon theophrasti, post-emergence, 336 h, read-out: Post-emergent Weed Control ABUTH; for pest or weed control at 280 g/ha: 280 g ai/ha; for pest or weed control at 140 g/ha: 140 g ai/ha. The data set is classed as in vivo. The method, boiled down: as §1

The subject of the next data set is rice (Oryza sativa). Briefly: General postemergence herbicidal activity, ORYSA. The conditions noted are these: postemergence spray, visual score after 14 days, 0 = no injury, 100 = complete kill; for plant injury at 280 g/ha / plant injury at 70 g/ha / plant injury at 140 g/ha: Oryza sativa, post-emergence, 336 h, read-out: Post-emergent Weed Control ORYSA; for plant injury at 280 g/ha: 280 g ai/ha; for plant injury at 140 g/ha: 140 g ai/ha. The data set is classed as in vivo. In outline:
as §1

The test system of data set [3] is barnyardgrass (Echinochloa crus-galli). Briefly: General postemergence herbicidal activity, ECHCG. The data set is classed as in vivo. The conditions noted are these: postemergence spray, visual score after 14 days, 0 = no injury, 100 = complete kill; for pest or weed control at 280 g/ha / pest or weed control at 70 g/ha / pest or weed control at 140 g/ha: Echinochloa crus-galli, post-emergence, 336 h, read-out: Post-emergent Weed Control ECHCG; for pest or weed control at 280 g/ha: 280 g ai/ha; for pest or weed control at 140 g/ha: 140 g ai/ha. The method, boiled down:
as §1

Data set [4] relates to wild poinsettia (Euphorbia heterophylla). Put plainly: General postemergence herbicidal activity, EPHHL. The data set is classed as in vivo. The conditions noted are these: postemergence spray, visual score after 14 days, 0 = no injury, 100 = complete kill; for pest or weed control at 280 g/ha / pest or weed control at 70 g/ha / pest or weed control at 140 g/ha: Euphorbia heterophylla, post-emergence, 336 h, read-out: Post-emergent Weed Control EPHHL; for pest or weed control at 280 g/ha: 280 g ai/ha; for pest or weed control at 140 g/ha: 140 g ai/ha. In outline:
as §1

The values that follow come from US8658791B2, “2-substituted-6-amino-5-alkyl, alkenyl or alkynyl-4-pyrimidinecarboxylic acids and 6-substituted-4-amino-3-alkyl, alkenyl or alkynyl picolinic acids and their use as herbicides” (Dow AgroSciences, LLC, priority 2007, dated 2014).

Structures are written as SMILES. Structures can show the parent of a compound that is named as a salt.

`C=Cc1c(N)nc(-c2ccc(Cl)cc2)nc1C(=O)OC` [Compound 6, 6-Amino-2-(4-chlorophenyl)-5-vinylpyrimidine-4-carboxylic acid methyl ester]: the melting point – broadly, the temperature of the solid-liquid transition – was in the range of 164 to 167 °C. Besides, the pest or weed control at 280 g/ha in data set [1] turned out to be 90%. In addition, the pest or weed control at 280 g/ha in data set [2] came out at 100%. Also, the plant injury at 280 g/ha in the data set with rice (Oryza sativa) stood at 0%. Further, the pest or weed control at 280 g/ha in data set [3] was 80%. In addition, the pest or weed control at 280 g/ha in data set [4] is 70%.
Molecule `C=Cc1c(N)nc(-c2ccc(Cl)c(OC)c2)nc1C(=O)OC` [Compound 7, 6-Amino-2-(4-chloro-3-methoxyphenyl)-5-vinylpyrimidine-4-carboxylic acid methyl ester] gave a melting point of 144 to 148 °C. For the same molecule, the pest or weed control at 280 g/ha in data set [1] stood at 95%. Further, the pest or weed control at 280 g/ha in data set [2] was found to be 60%. Moreover, the plant injury at 280 g/ha with rice (Oryza sativa) came out at 0%. In addition, the pest or weed control at 280 g/ha in data set [3] worked out at 0%. Moreover, the pest or weed control at 280 g/ha in data set [4] amounted to 70%.
Consider `C=Cc1c(N)nc(-c2cc(OC)c(Cl)cc2F)nc1C(=O)OC` [Compound 8, 6-Amino-2-(4-chloro-2-fluoro-5-methoxyphenyl)-5-vinylpyrimidine-4-carboxylic acid methyl ester], for which the melting point fell in the range of 161 to 164 °C. Further, the pest or weed control at 280 g/ha in data set [1] came out at 100%. The pest or weed control at 280 g/ha in data set [2] is 100%. In addition, in the data set on rice (Oryza sativa), the plant injury at 280 g/ha stood at 0%. Further, in data set [3], the pest or weed control at 280 g/ha was 100%. Besides, in data set [4], the pest or weed control at 280 g/ha was 50%.
`C/C=C\c1c(N)nc(-c2ccc(Cl)c(OC)c2F)nc1C(=O)OC` [Compound 23, 6-Amino-2-(4-chloro-2-fluoro-3-methoxyphenyl)-5-((Z)-propenyl)pyrimidine-4-carboxylic acid methyl ester] yielded a melting point of 91 to 93 °C. In addition, in data set [1] (70 g ai/ha), the pest or weed control at 70 g/ha was 95%. For the same molecule, the pest or weed control at 70 g/ha in data set [2] (70 g ai/ha) was 85%. For the same molecule, in the data set with rice (Oryza sativa) (70 g ai/ha), the plant injury at 70 g/ha worked out at 10%. The pest or weed control at 70 g/ha in data set [3] (70 g ai/ha) was determined as 95%. The pest or weed control at 70 g/ha in data set [4] (70 g ai/ha) turned out to be 100%.
The molecule `COc1c(Cl)ccc(-c2nc(N)c(C(C)OC)c(C(=O)O)n2)c1F` (stereo not shown) [Compound 40, 6-Amino-2-(4-chloro-2-fluoro-3-methoxyphenyl)-5-(1-methoxyethyl)pyrimidine-4-carboxylic acid] had a melting point of 165 to 167 °C. Besides, the pest or weed control at 280 g/ha in data set [1] was 100%. Besides, in data set [2], the pest or weed control at 280 g/ha amounted to 85%. For the same molecule, the plant injury at 280 g/ha in the data set on rice (Oryza sativa) turned out to be 35%. Also, the pest or weed control at 280 g/ha in data set [3] came out at 90%. Further, the pest or weed control at 280 g/ha in data set [4] came to 100%.
Molecule `C=Cc1c(N)nc(-c2ccc(Cl)c(OC)c2F)nc1C(=O)O` [Compound 41, 6-Amino-2-(4-chloro-2-fluoro-3-methoxyphenyl)-5-vinylpyrimidine-4-carboxylic acid] returned a melting point of 167 to 168 °C. Moreover, the pest or weed control at 70 g/ha in data set [1] (70 g ai/ha) was 100%. Further, the pest or weed control at 70 g/ha in data set [2] (70 g ai/ha) was 100%. In the data set with rice (Oryza sativa) (70 g ai/ha), the plant injury at 70 g/ha was found to be 65%. Besides, in data set [3] (70 g ai/ha), the pest or weed control at 70 g/ha amounted to 100%. Also, the pest or weed control at 70 g/ha in data set [4] (70 g ai/ha) amounted to 100%.
Molecule `C=Cc1c(N)nc(-c2ccc(Cl)c(F)c2F)nc1C(=O)O` [Compound 44, 6-amino-2-(4-chloro-2,3-difluorophenyl)-5-vinylpyrimidine-4-carboxylic acid] registered a melting point of 170 to 172 °C. For the same molecule, the pest or weed control at 70 g/ha in data set [1] (70 g ai/ha) came out at 100%. Besides, the pest or weed control at 70 g/ha in data set [2] (70 g ai/ha) was determined as 100%. Besides, the plant injury at 70 g/ha in the data set with rice (Oryza sativa) (70 g ai/ha) stood at 15%. For the same molecule, the pest or weed control at 70 g/ha in data set [3] (70 g ai/ha) came out at 100%. The pest or weed control at 70 g/ha in data set [4] (70 g ai/ha) is 100%.
In turn, `C=Cc1c(N)nc(-c2cc(F)c(Cl)cc2F)nc1C(=O)O` [Compound 46, 6-Amino-2-(4-chloro-2,5-difluorophenyl)-5-vinylpyrimidine-4-carboxylic acid] yielded a melting point of 81 to 83 °C. Moreover, the pest or weed control at 140 g/ha in data set [1] turned out to be 100%. For the same molecule, the pest or weed control at 140 g/ha in data set [2] turned out to be 90%. In addition, the plant injury at 140 g/ha in the data set on rice (Oryza sativa) was found to be 40%. Further, the pest or weed control at 140 g/ha in data set [3] was 90%. The pest or weed control at 140 g/ha in data set [4] came to 95%.
`C=Cc1c(N)nc(-c2ccc(Cl)c(C(C)F)c2F)nc1C(=O)O` (stereo not shown) [Compound 47, 6-Amino-2-(4-chloro-2-fluoro-3-(1-fluoroethyl)phenyl)-5-vinylpyrimidine-4-carboxylic acid] yielded a melting point of 150 to 153 °C. Moreover, the pest or weed control at 70 g/ha in data set [1] (70 g ai/ha) was determined as 100%. Besides, in data set [2] (70 g ai/ha), the pest or weed control at 70 g/ha was 90%. Further, the plant injury at 70 g/ha with rice (Oryza sativa) (70 g ai/ha) was determined as 50%. The pest or weed control at 70 g/ha in data set [3] (70 g ai/ha) was 100%. Moreover, in data set [4] (70 g ai/ha), the pest or weed control at 70 g/ha is 100%.
For the molecule `C=Cc1c(N)nc(C2CC2)nc1C(=O)O` [Compound 57, 6-amino-2-cyclopropyl-5-vinylpyrimidine-4-carboxylic acid], the melting point is 187 to 189 °C. In data set [1], the pest or weed control at 140 g/ha is 100%. In addition, the pest or weed control at 140 g/ha in data set [2] was 90%. In the data set with rice (Oryza sativa), the plant injury at 140 g/ha was found to be 5%. The pest or weed control at 140 g/ha in data set [3] is 30%. Further, in data set [4], the pest or weed control at 140 g/ha came out at 100%.
Turning to `COc1c(Cl)ccc(-c2cc(N)c(C)c(C(=O)O)n2)c1F` [Compound 58, 4-Amino-6-(4-chloro-2-fluoro-3-methoxyphenyl)-3-methylpyridine-2-carboxylic acid], the pest or weed control at 280 g/ha in data set [1] worked out at 50%; in data set [2], 90%; in data set [3], 50%; in data set [4], 90%. Moreover, the plant injury at 280 g/ha in the data set on rice (Oryza sativa) turned out to be 0%.
Molecule `C=Cc1c(N)cc(-c2ccc(Cl)cc2F)nc1C(=O)O` [Compound 60, 4-Amino-6-(4-chloro-2-fluorophenyl)-3-vinylpyridine-2-carboxylic acid] came in with a melting point of 209 to 211 °C. Further, the pest or weed control at 140 g/ha in data set [1] was 100%. The pest or weed control at 140 g/ha in data set [2] is 70%. Also, the plant injury at 140 g/ha in the data set on rice (Oryza sativa) worked out at 15%. Also, the pest or weed control at 140 g/ha in data set [3] turned out to be 35%. Moreover, in data set [4], the pest or weed control at 140 g/ha worked out at 80%.
With `C=Cc1c(N)nc(-c2ccc(Cl)c(OC)c2F)nc1C(=O)O` [Compound 63, triethylamine salt of 6-amino-2-(4-chloro-2-fluoro-3-methoxyphenyl)-5-vinylpyrimidine-4-carboxylic acid], the “Post-emergent Weed Control CHEAL” value in data set [1] (70 g ai/ha) stood at 100%. Further, the “Post-emergent Weed Control ABUTH” value in data set [2] (70 g ai/ha) was determined as 95%. Further, in the data set on rice (Oryza sativa) (70 g ai/ha), the “Post-emergent Weed Control ORYSA” value is reported as 75%. The “Post-emergent Weed Control ECHCG” value in data set [3] (70 g ai/ha) was 90%. Besides, the “Post-emergent Weed Control EPHHL” value in data set [4] (70 g ai/ha) is 100%.
